Results reported in patent US5661182A, “Method for lowering oxygen affinity of hemoglobin in redcell suspensions, in whole blood and in vivo” (Virginia Commonwealth University, priority 1995, dated 1997).
“Also recorded” adds a separate entry of the source.

Experiments:
[1] = target: bovine hemoglobin (Bos taurus, UniProt P01966+P02070); assay: Oxygen equilibrium of isolated bovine Hb solutions (p50); type: biochemical; details: for p50 shift at increasing chloride concentration / Hb bovine(p50): bovine Hb solution; for p50 shift at increasing chloride concentration: 0.5 mM, chloride 0-400 mM; for Hb bovine(p50): effector 0.5 mM, pH 7.2, 100 mM NaCl, 25 °C
Source text: (§1) L3,5 and L3,4,5 were provided by Dr. Lalezari (Montefiore Hospital, New York); RSR-4 [2-[4-[[(3,5-dichloroanilino)carbonyl]methyl]phenoxy]-2-methylpropionic acid]and RSR13 [2-4-[[(3,5- dimethylanilino)carbonyl]methyl]phenoxy]-2-methylpropionic acid] have been synthesized following the procedure described in Randad et al. (J. Med. Chem. 34,752 (1991)). Human serum albumin (HSA), bovine serum albumin (BSA) and 4,4'diisothiocyanatostilbene-2,2'-disulfonate (DIDS) were purchased from Sigma (St. Louis, Mo.). Due to their low solubility in aqueous buffer, 10 mM stock solutions of the compounds were prepared in a slight exccess of sodium bicarbonate and back-titrated to pH 7.4. For example, RSR-4 or RSR-13 was dissolved at 60° C. in a 140 mM NaCl and 50 mM bis-Tris buffer at room temperature upon progressive addition of NaHCO3 to obtain 10 mM stock solutions. The pH was carefully adjusted to 7.4 after complete solubilization and before use of the solutions. Fresh solutions were prepared each week. Stock solutions of DIDS (1 mM) were prepared, in the dark, on the day of the experiments in a pH 7.4 buffer. Human serum albumin (defatted HSA) and bovine serum albumin (BSA) were prepared freshly as 1 mM stock solutions, pH 7.4. Equilibrium Measurements. The allosteric modulation of the effectors on freshly prepared solutions of hemoglobin or red cell suspensions was measured by the change in p50, the partial pressure of oxygen for half-saturation. Oxygen equilibrium curves (OEC) were carried out with the Hemox analyzer (TCS, Southampton, Pa.) under the following conditions: pH 7.4, 140 mM NaCl and 50 mM bis-Tris buffer at 37° C. In all experiments, the concentration of hemoglobin in the red cell suspensions was 20-25 μM hemoglobin tetramer (Hb4) as measured by Drabkin's method (cyanomethemoglobin) at the end of each recording. The final concentration of the allosteric effector in the cuvette was 0.5 mM, resulting in an effector/Hb4 ratio of 20 in the absence of albumin. OEC were also made in the same buffer containing 12.5, 25, 50, and 100 μM HSA (for human red cell suspensions) or BSA (for bovine cell suspensions). The serum albumin experiments were carried out with traces of an antifoaming agent. This agent has no deleterious effect on the red cell suspensions. The molar ratio of albumin to tetrameric hemoglobin was varied from 0.5 (at 12.5 μM HSA) to 4 (at 100 μM HSA); in whole blood this ratio is approximately 0.3 (0.7 mM albumin plus plasma proteins/2.25 mM Hb4). Therefore, the concentration of albumin used in the present studies was always larger relative to tetrameric hemoglobin than that found in whole blood.
Bovine Red Cell Studies. Table 2 presents data for oxygen binding measurements for fresh bovine red blood cells and isolated Hb solutions on addition of the effectors L3,5, RSR-4, and RSR-13. The experimental conditions used were the same as described in conjunction with Table 1 for human red blood cells. The oxygen equilibrium curves for Hb solutions were made at pH 7.2, 100 mM NaCl and 50 mM bis-Tris buffer at 25° C. Catalase (20 μg/mL) and 50 μM EDTA were added to oppose oxidation of the hemes. The concentration of the effectors was 0.5 mM in all conditions. In Table 2, BSA is bovine serum albumin and P50 (mmHg) is the pO2 for 50% saturation.

[2] = target: deoxyhemoglobin (Homo sapiens, UniProt P68871+P69905); assay: X-ray crystallographic studies with deoxyhemoglobin; type: binding
Description: X-ray Crystallographic Studies. Hemoglobin for the crystal studies was prepared from human blood, and T-state deoxy crystals were obtained from ammonium sulfate solutions. RSR-4 or RSR-13 (2 effectors/I Hb) was dissolved in a slight excess of sodium bicarbonate to facilitate dissolution and was added to a 6 g % solution of deoxy-Hb in the glove box. A 1 g % Hb RSR-4 or RSR-13 solution was added to each crystallization tube. Crystals grew in approximately 1 week. X-ray data were collected with Friedel pairs using ω scans on a Rigaku AFC5R diffractometer equipped with a rotating anode and a 60-cm long evacuated beam tunnel. The crystals with allosteric effectors were isomorphous with native deoxy-Hb: RSR-4, 63.2, 83.7, and 53.8 Å, 99.4°; RSR-13, 63.2, 83.6, and 53.7 Å, 99.5°. Data collection (RSR-4 to 2.4-Å and RSR-13 to 2.8-Å resolution) was controlled by TEXAN software from Molecular Structure Corp. (The Woodlands, Tex.). There was little radiation damage to crystals, and new crystals were mounted when standard reference reflection intensities fell by 10%. All data were corrected for radiation damage when appropriate. The R-factors for the Friedel pairs and derivatives vs. native were as follows: RSR-4 (2.4 Å), 14.6% and 18.9%, and RSR-13 (2.8 Å), 7.2% and 12.5%, respectively. The difference electron density maps were obtained using the Cambridge computer programs (CCP4). […] The allosteric effector molecules were well resolved and easily fit to the difference density.

[3] = target: hemoglobin in red cell suspensions (Homo sapiens, UniProt P68871+P69905); assay: Allosteric effector activity in the presence of serum albumin in buffered red cell suspensions (FIG. 3); type: cell-based; details: for effector activity in the presence of serum albumin: FIG. 3, effector 0.5 mM (L3,4,5 0.25 mM)
Source text: as §1, with “OEC were also made in the same buffer containing 12.5, 25, 50, and 100 μM HSA (for human red cell suspensions) or BSA (for bovine cell suspensions). The serum albumin experiments were carried out with traces of an antifoaming agent. This agent has no deleterious effect on the red cell suspensions. The molar ratio of albumin to tetrameric hemoglobin was varied from 0.5 (at 12.5 μM HSA) to 4 (at 100 μM HSA); in whole blood this ratio is approximately 0.3 (0.7 mM albumin plus plasma proteins/2.25 mM Hb4). Therefore, the concentration of albumin used in the present studies was always larger relative to tetrameric hemoglobin than that found in whole blood.” left out

[4] = tested on: hemoglobin in rat blood; assay: In vivo effect in conscious rats: oxygen dissociation curve of blood after 2-h infusion; details: for sign of distress: rats, during infusion
Description: In Vivo Studies. The in vivo effect of RSR-4 and RSR-13 was assessed in conscious rats that received (through a chronic femoral vein catheter) an initial 85.7±3.7 mg/kg dose of RSR-4 or 84.0±4.0 mg/kg dose of RSR-13, followed by 85.7±3.7mg/(kg h) RSR-4 or 84.0±4.0 mg/(kg h) RSR13, respectively, for 2 h. The oxygen dissociation curve was measured before infusion with a Hemox analyzer and, after the 2-h infusion, was manually measured with a tonometer and visible spectroscopy to avoid a dilution step (used with the Hemox analyzer) that would disrupt the equilibrium between the drug and erythrocytes. Tonometry was performed at a constant/pCO2 of 40 mmHg at 37° C. The pH of the blood was 7.443±0.012 (n=5) for the RSR-13 experiment and 7.412±0.098 (n=7) for the RSR-4 experiment. Control rats received an infusion of buffer solution with NaHCO3. A slight molar excess of NaHCO3 was used to better solubilize RSR-4.

Compound | p50 shift at increasing chloride concentration [1] | Hb bovine(p50) [1] [mmHg] | second symmetry-related pair of binding sites ([2]; near Arg 104β) | binding site in deoxyhemoglobin crystal [2] | allosteric effector activity ([3]; 0.5 mM effector, in the presence of 50 μM albumin) | effector activity in the presence of serum albumin [3] | Hill coefficient ([4]; rats (n=5), 84 mg/kg then 84 mg/(kg h) for 2 h, initial 2.62±0.10) | p50 ([4]; rats (n=5), 84 mg/kg then 84 mg/(kg h) for 2 h, initial 36.0±2.7) [mmHg] | sign of distress [4] | potency in Hb solution ([1]; Hb solution studies, Table 2) | p50 ([4]; rats (n=7), 85.7±3.7 mg/kg iv then 85.7±3.7 mg/(kg h) for 2 h, control value 36.4±1.6) [mmHg] | Hill coefficient ([4]; rats (n=7), 85.7±3.7 mg/kg iv then 85.7±3.7 mg/(kg h) for 2 h, initial 2.66±0.13)
CC(C)(Oc1ccc(NC(=O)Nc2cc(Cl)cc(Cl)c2)cc1)C(=O)O [L3,5, reference compound] | identical at all chloride concentrations | 37 | have a second symmetry-related pair of binding sites near Arg 104β | – | – | – | – | – | – | – | – | –
Cc1cc(C)cc(NC(=O)Cc2ccc(OC(C)(C)C(=O)O)cc2)c1 [RSR-13] | – | – | – | bind in the central water cavity in a conformation identical to that found for RSR-4 | greater than 90% | practically unaffected by serum albumin; also recorded: by far the least affected by serum albumin inhibition | 1.73±0.08 | 61.4±5.8 | did not show any sign of distress | – | – | –
CC(C)(Oc1ccc(CC(=O)Nc2cc(Cl)cc(Cl)c2)cc1)C(=O)O [RSR-4, 2-[4-[[(3,5-dichloroanilino)carbonyl]methyl]phenoxy]-2-methylpropionic acid] | identical at all chloride concentrations | 59 | – | – | – | greater than L3,5 and L3,4,5 at all serum albumin/Hb ratios studied | – | – | did not show any sign of distress | significantly larger than that of L3,5 | 60.7±8.1 | 1.74±0.08
